{"source": "patent US20080249124A1", "about": "“WORTMANNIN-RAPALOG CONJUGATE AND USES THEREOF” (Wyeth, priority 2007, published 2008)", "key": {"C3H mammary model": {"tested_on": "C3H mammary model", "conditions": "cited from earlier work"}, "PI3K": {"tested_on": "PI3K", "conditions": "cited from earlier work"}, "[1]": {"tested_on": "U87MG (human glioblastoma) tumor", "experiment": "Xenograft tumor efficacy study", "type": "in vivo", "conditions": "female nude mice; for tumor size versus control and single reference compounds: 15 mg/kg IV on day 0 and day 7, D5W vehicle; for tumor size versus mixture of reference compounds 1 and 2: 15 mg/kg IV on day 0 and day 7, mixture 10 mg/kg/5 mg/kg", "method": "Female nude mice at 10 weeks of age were inoculated subcutaneously on the flank with 200 μL U87MG (human glioblastoma) tumor cell suspension. U87MG cells were suspended in full growth media and were implanted at 10 million cells per mouse. Mice were staged when tumors reached approximately 200 mm^3 in sizes. Tumor bearing mice at staging (day 0) were randomized into treatment groups (n=10). The conjugates described herein were formulated in D5W vehicle (glucose-water) and were dosed IV on day 0 and day 7. See, Table 6.\nThe growth of tumors was monitored twice a week for the duration of the experiment. Tumor size was measured using sliding vernier calipers, and the tumor mass was calculated using the formula (length×Width^2)/2."}, "tumor xenografts": {"tested_on": "tumor xenografts", "conditions": "animals; cited from earlier work"}}, "data": [{"molecule": "COCC1OC(=O)c2coc3c2C1(C)C1=C(C3=O)C2CCC(O)C2(C)CC1OC(C)=O", "note": "(stereo not drawn) [17β-Hydroxywortmannin]", "values": [{"measurement": "anti-tumor activity", "setting": "C3H mammary model; dose of 0.5 mg/kg", "value": "no inhibition"}, {"measurement": "toxicity", "setting": "C3H mammary model; dose of 1.0 mg/kg", "value": "toxicity"}, {"measurement": "increase in activity relative to wortmannin", "setting": "PI3K; PI3K", "value": 10, "unit": "fold"}, {"measurement": "IC50", "setting": "PI3K", "value": 500, "unit": "pM"}]}, {"molecule": "COC[C@H]1OC(=O)/C(=C/N(C)CCCN(C)C)C2=C(O)C(=O)C3=C([C@H](OC(C)=O)C[C@@]4(C)C3CC[C@@H]4OC(=O)CCCCCCC(=O)O[C@H]3CC[C@H](C[C@@H](C)[C@@H]4CC(=O)[C@H](C)/C=C(\\C)[C@@H](O)[C@@H](OC)C(=O)[C@H](C)C[C@H](C)/C=C/C=C/C=C(\\C)[C@@H](OC)C[C@@H]5CC[C@@H](C)[C@@](O)(O5)C(=O)C(=O)N5CCCC[C@H]5C(=O)O4)CC3)[C@]21C", "note": "(stereo partly shown) [Example 2b, N,N,N′-trimethyl-1,3-propanediamine adduct of 42,17′-linked 41-Desmethoxyrapamycin-Suberate-Wortmannin conjugate]", "values": [{"measurement": "tumor size versus control and single reference compounds", "setting": "[1]", "value": "smaller tumors than tumors treated with control or with reference compound 1 or reference compound"}, {"measurement": "tumor size versus mixture of reference compounds 1 and 2", "setting": "[1]", "value": "tumors of comparable size to that achieved with a mixture of reference compounds 1 and 2"}]}, {"molecule": "COC[C@H]1OC(=O)c2coc3c2[C@@]1(C)C1=C(C3=O)[C@@H]2CCC(=O)[C@@]2(C)C[C@H]1OC(C)=O", "note": "[Wortmannin]", "values": [{"measurement": "PI3K inhibition", "setting": "PI3K", "value": "irreversible inhibitor, at nanomolar concentrations"}, {"measurement": "antitumor activity against tumor xenografts", "setting": "tumor xenografts", "value": "antitumor activity against tumor xenografts in animals"}]}, {"molecule": "Diallylamine Adduct of 42,17′-linked 41-Desmethoxyrapamycin-Suberate-Wortmannin Conjugate [Example 2a]", "values": [{"measurement": "tumor size versus control and single reference compounds", "setting": "[1]", "value": "smaller tumors than tumors treated with control or with reference compound 1 or reference compound"}]}, {"molecule": "diallylamine adduct of 17-hydroxywortmannin [compound 2]", "values": [{"measurement": "tumor size versus mixture of reference compounds 1 and 2", "setting": "[1]", "value": "tumors of comparable size to that achieved with a mixture of reference compounds 1 and 2"}]}]}
